{"source": "patent US7652015B2", "about": "“Kinase inhibitors” (Eli Lilly and Company, priority 2006, dated 2010)", "system": "TNFα", "experiment": "Inhibition of TNFα in vitro, LPS/interferon-γ treated mouse peritoneal macrophages, Luminex", "type": "cell-based", "conditions": "Peritoneal macrophage, 50 ng/mL LPS and 10 U/mL interferon-γ, 18 hours, read-out: IC50, suppression of TNFα in vitro", "method": "1 mL thioglycolate broth (5.0 g yeast extract, 15.0 g casitone or trypticase, 5.0 g dextrose, 2.5 g sodium chloride, 0.75 g L-cystine, 0.5 g sodium thioglycolate, 1.0 mg resazurin, and 0.75 g agar in 1.0 L distilled water) are injected into the peritoneal cavity of Balb/C female mice. At day 4 or 5 post-injection the mice are sacrificed and then injected i.p. with 4 mL RPMI-1640 medium (BioWhittaker) and the peritoneal macrophages are withdrawn by syringe.\nMouse peritoneal macrophages are counted with a hemocytometer and adjusted to 5×10^5 cells/well in 96-well plates in RPMI-1640 medium with 10% fetal bovine serum. 200 μL/well is plated in 96-well plates and the cells allowed to settle and adhere to the bottom of the well for at least 3 hours. The test compound or standard p38 kinase inhibitor is pre-treated using a series of 8 concentrations for 1 hour at 37° C. […]\n50 μL of cytokine detection antibody is added and incubated for 60 seconds at room temperature on a shaker protected from light at setting 6 and then for 30 minutes at setting 3.3 washes are performed with the Bio-Plex Wash Buffer. […] Standards and samples are read on a Luminex machine. These intensity readings are then converted to picogram/milliliter units based on a 12-point standard curve created in duplicate using a four-parameter logistic regression method (Bio-Plex Manager 2.0, Bio-Rad), and the IC50 calculated. […]"}
{"molecule": "CS(=O)(=O)O.Cc1ccc(-n2nc(C(C)(C)C)cc2NC(=O)Nc2ccc(N3CCN(C(=O)c4c(F)cccc4F)CC3)nc2C)cc1", "note": "[Example 5, 1-(5-tert-Butyl-2-p-tolyl-2H-pyrazol-3-yl)-3-{6-[4-(2,6-difluoro-benzoyl)-piperazin-1-yl]-2-methyl-pyridin-3-yl}-urea methanesulfonate]", "values": [{"measurement": "IC50", "value": 18, "unit": "nM"}]}
